The results in this text go back to patent US9394544B2, “Ameliorating oxidative stress in neurodegenerative disease via Nox1 targeting” (University of Central Florida Research Foundation, Inc., priority 2013, dated 2016).

The test system of one assay is N27 cells. The experiment in a line: NBT assay of 6-OHDA-mediated ROS generation in N27 dopaminergic cells. It is filed as cell-based, rat. To be noted: 6 h; for 6-OHDA-mediated ROS generation (NBT assay): inhibitor pre-treatment 30 min (DPI 0.1, 0.5, 1.0 μM; apocynin 0.1, 1.0, 10, 100 μM), then 6-OHDA 100 μM.
The subject of assay [1] is Nox1. The experiment in a line: Nox1 expression (RT-PCR, immunoblot) in N27 cells exposed to toxins. It is filed as cell-based, rat. The source says: The NADPH oxidase is a multi-subunit enzyme that consists of the catalytic subunits (Nox isoforms) together with the regulatory subunits including p22phox, p47phox, p40phox, p67phox, Nox organizer 1 (Noxo1), Nox activator 1 (Noxa1), and small GTPase Rac1. In order to test whether dopaminergic (DA) cells are equipped with the NOX components, N27, a well-established rat DA cell line was examined (Prasad et al. 1994). The mRNAs encoding each Nox isoform and regulatory subunits were detected using RT-PCR. Since transcriptional induction of Nox1 and Nox4 has already been reported in several tissues under a variety of stimuli, transcripts were determined in both nontreated and 6-hydroxydopamine (6-OHDA), a DA neurodegenerative compound, treated DA cells. ROS generation as induced by 6-OHDA (100 μM) and subsequent cell death was observed. All Nox isoforms (Nox1, Nox2, Nox4, Duox1 and Duox2) except Nox3 and Nox5 were detected (FIG. 1A). […] Mitochondria, which have long been considered as a major source of ROS, play a key role in Nox1-mediated superoxide generation (Desouki et al. 2005). […] Cytoplasmic regulatory subunits including p47phox, Noxa1, and Noxo1 were constitutively expressed in DA cells as well (FIG. 1A). Noxa1 and Noxo1 are homologues of p67phox and p47phox, respectively. They are involved in Nox1-mediated superoxide generation (Banfi et al. 2003, Geiszt et al. 2003). […] The activation of a small GTPase Rac1 is indispensable for Nox1 and Nox2 activation (Bokoch 2002). GTP-bound active Rac1 was measured in DA cells treated with 6-OHDA for various duration from 1 h to 6 h.
Total RNA was extracted from N27 cells using Trizol reagent (Invitrogen, Carlsbad, Calif.). Reverse transcription was performed for 1 h at 42° C. with 1 μg of total RNA using 20 unit/μl of AMV reverse transcriptase (Roche Applied Science, Indianapolis, Ind.), and oligo-p(dT)15 as a primer. The samples were then heated at 99° C. for 5 min to terminate the reaction. The cDNA obtained from 1 μg total RNA was used as a template for PCR amplification. Oligonucleotide primers were designed based on Genebank entries for rat NOX1 (sense, 5′-[…]-3′ SEQ ID NO. 1; antisense, 5′-[…]-3′ SEQ ID NO. 2), rat NOX2 (sense, 5′-[…]-3′ SEQ ID NO. 3; antisense, 5′-[…]-3′ SEQ ID NO. 4), rat NOX4 (sense, 5′-[…]-3′ SEQ ID NO. 5; antisense, 5′-[…]-3′ SEQ ID NO. 6), rat NOXA1 (sense, 5′-[…]-3′ SEQ ID NO. 7; antisense, 5′-[…]-3′ SEQ ID NO. 8), rat NOXO1 (sense, 5′-[…]-3′ SEQ ID NO. 9; antisense, 5′-[…]-3′ SEQ ID NO. 10), rat p47 (sense, 5′-[…]-3′ SEQ ID NO 11; antisense, 5′-[…]-3′ SEQ ID NO. 12), rat Duox1 (sense, 5′-[…]-3′ SEQ ID NO. 13; antisense, 5′-[…]-3′SEQ ID NO. 14), rat Duox2 (sense, 5′-[…]-3′ SEQ ID NO. 15; antisense, 5′-[…]-3′ SEQ ID NO. 16) and rat GAPDH (sense, 5′-[…]-3′ SEQ ID NO. 17; antisense, 5′-[…]-3′ SEQ ID NO. 18). PCR mixes contained 10 μl of 2×PCR buffer, 1.25 mM of each dNTP, 10 pmol of each forward and reverse primer, and 2.5 units of Taq polymerase in the final volume of 20 μl. Amplification was performed in 35 cycles at 60° C., 30 sec; 72° C., 1 min; 94° C., 30 sec. After the last cycle, all samples were incubated for an additional 10 min at 72° C. for final extension step. PCR fragments were analyzed on 1.2% agarose gel in 0.5×TAE containing ethidium bromide. Amplification of GAPDH, a relatively invariant internal reference RNA, was performed in parallel, and cDNA amounts were normalized against GAPDH mRNA levels. The primer set specifically recognized only the gene of interest as indicated by amplification of a single band of expected size. […]

Assay [2] concerns Nox1. Briefly: Nox1 expression in SNDA neurons of MPTP-treated mice. The class given is in vivo.
For assay [3], the system named is Nox1. The experiment in a line: Nuclear localization of Nox1-EGFP in N27 cells (confocal microscopy). The class given is cell-based, rat. The following applies: N27 cells expressing Nox1-EGFP; 6-OHDA 50 μM 6 h, rotenone 5 μM 18 h. From the text:
The observation that Nox1 was induced by a variety of oxidative stimuli in vitro led one to test Nox1 expression in the rat substantia nigra DA (SNDA) neurons administered with 6-OHDA. […] Neither astrocytes nor microglia expressed Nox1, as verified by co-immunostaining of Nox1 with GFAP (astrocytes) or CD11b (microglia) (FIG. 3B). Increased Nox1 transcript was found in the SN as shown by in situ hybridization (FIG. 3C). […] As early as 3 days post 6-OHDA injection, Nox1 expression was increased in the nucleus and in the cytoplasm of DA neurons (FIG. 4A). […] Nuclear expression of the Nox1/Rac1 complex was further analyzed in N27 cells after treatment with 6-OHDA. First, activated Rac1 was detected by immunoprecipitation of nuclear extracts of N27 cells after a 24 h treatment with 6-OHDA. […] Next, it was established that N27 cells stably expressing Nox1 tagged with EGFP at the C-terminus. […] To examine whether nuclear translocation of Nox1 in dopaminergic cells is observed under different conditions that cause dopaminergic neuronal death, mitochondrial respiratory complex inhibitor, rotenone, was tested.

Where two headings read alike, the source gives them in different places.

As to `c1ccc2c(c1)[I+]c1ccccc1-2` [DPI, diphenyleneiodonium], in the assay on N27 cells (30 min pre-treatment, 6-OHDA 100 μM), the “lowest concentration significantly reducing 6-OHDA-mediated ROS generation” value is 0.1 µM. Further, the “6-OHDA-mediated ROS generation (NBT assay)” value in the assay on N27 cells is “significantly reduced”.
Take `N#CC(C#N)=NNc1ccc(OC(F)(F)F)cc1` [FCCP]: the “mRNA and protein levels of Nox1” value with Nox1 [1] is “elevated”.
As for `OO` [H2O2], in the assay on Nox1 [1] (N27 cells), the “mRNA and protein levels of Nox1” value was “increase”.
`CN1CC=C(c2ccccc2)CC1` [MPTP, 1-methyl-4-phenyl-1,2,3,6-tetrahydropyridine]: the “Nox1 expression in the SNDA neurons” value with Nox1 [2] is recorded as “Increased Nox1 expression”.
Turning to `COc1cc(C(C)=O)ccc1O` [apocynin], the “6-OHDA-mediated ROS generation (NBT assay)” value in the assay with N27 cells was “significantly diminished”.
Consider `CC(C)(C)c1ccc(CSc2cnn(C(C)(C)C)c(=O)c2Cl)cc1` [pyridaben], for which, in the assay with Nox1 [1] (N27 cells), the “mRNA and protein levels of Nox1” value is “elevated”.
On to `C=C(C)[C@H]1Cc2c(ccc3c2O[C@@H]2COc4cc(OC)c(OC)cc4[C@@H]2C3=O)O1` [rotenone], for which the “nuclear localization of Nox1” value with Nox1 [3] was “led to nuclear localization of Nox1”. In addition, in the assay on Nox1 [1] (N27 cells), the “mRNA and protein levels of Nox1” value was “elevated”.
Consider antimycin A, for which, in the assay on Nox1 [1] (N27 cells), the “mRNA and protein levels of Nox1” value is on record as “elevated”.
